Measured values: patent publication US10739333B2, “Methods of BH3 profiling” (Dana-Farber Cancer Institute, Inc., priority 2013, dated 2020)

How the values were obtained:
SuDHL4 cell line = experiment: miBH3 profile of the SuDHL4 cell line (FIG. 4); format: cell-based; details: FIG. 4A, matches other BH3 profiling methods in FIG. 4B
Experimental: BH3 profiling can be accomplished at the single cell level by immobilizing cells on a solid surface. Optionally the solid surface is polyamine or poly-lysine coated. Immobilized cells are permeabilized as described above. The cells are then contacted with BH3 peptides and/or test agents. After the cells have been treated for a predetermined period of time such as 45-90 minutes, the cells are fixed and further permeabilized by methods known in the art. For example the cells are fixed with formaldehyde and further permeabilized with methanol or Triton X-100 (t-Octylphenoxypolyethoxyethanol). Outer membrane permeabilization is determined by intracellular staining for molecules from the mitochondrial inter-membrane space and a mitochondrial marker. Examples of molecules that can be measured include cytochrome c, SMAC/Diablo, Omi, adenylate kinase-2 or apoptosis inducing factor (AIF). A mitochondrial marker includes MnSOD. Stained cells can be counterstained with nuclear stains such as DAPI. Optionally other intracellular and extracellular markers can be measured. […]
MicroBH3 (miBH3) is a BH3 profiling method where the measurement of the mitochondrial effect of […] peptides have on individual cells by microscopy. […] Fixed cells by this method can be readily stopped at the fixation step and can be analyzed weeks after acquisition as well as readily re-analyzed if needed.

MDA-MB-231 = experiment: BH3 profiling in pre-made frozen versus freshly prepared plates (FIG. 5); format: cell-based; details: responsive cells MDA-MB-231
Description: Also included in the invention are kits for performing BH3 Profiling using whole cells. The kit consists of a multi-well plate containing staining components in a mitochondrial buffer and a tube of mitochondrial buffer for the suspension and dispensing of cells into the plate for analysis. Each well of the multi-well plate contains a mixture of JC-1 dye, oligomycin, 2-mercaptoethanol, digitonin, and a peptide or small molecule at twice their final concentration, Optionally the plate and suspension buffer tube can be frozen for later use along with the suspension buffer tube. To use, the plate and buffer tube are thawed and brought to room temperature. Cells are suspended in buffer, dispensed into the wells of the plate, and analyzed in a fluorescence plate reader using the JC-1 red fluorescence at 590 nm with excitation at 545 nm.

Q: With “BAD: BH3 domain peptide LWAAQRYGRELRRMSDEFEGSFKGL, SEQ ID NO 4” as the substance, how does the “release of cytochrome c / loss of correlation between cytochrome c and MnSOD channels” value (SuDHL4 cell line) read?
A: The value was “Release of cytochrome c and loss of correlation”.

Q: What about the “response to peptide treatment in frozen and freshly prepared plates” value (MDA-MB-231) of the same substance?
A: The value was “comparable response”.
